Measured values taken from patent publication US12371416B2, “Compounds for inhibition of fibroblast activation protein” (USTAV ORGANICKE CHEMIE A BIOCHEMIE AV CR, V. V. I., priority 2020, dated 2025).
pIC50: −log10 of the molar value. Entries after “also recorded” stand apart in the source; their conditions may differ.

Legend:
HL-60 = assay: Cytotoxicity (XTT) on HL-60 cells; type: cell-based, human; conditions: 72 h
Procedure: (§1) The cytotoxicity of the substances was measured on four tumour cell lines: CCRF-CEM, HepG2, Hela, HL-60. All cell lines were purchased from ATCC (Manassas, VA, USA). Cells were cultured in RPMI-1640 or DMEM medium containing 10% (wt/wt) FBS and 1% (wt/wt) GlutaMax. Cells were distributed at 2,000-10,000 per well of a 384-well plate (Thermo Fisher Scientific, Waltham, USA) and incubated overnight. After 24 hours, test substance solutions (10 or 100 μmol·l^−1) were added to the wells and the cells were incubated with the test substances at 37° C. and 5% (vol./vol.) CO2 for another 72 h. XTT dye (XTT cell proliferation kit II, Roche Diagnostics GmbH, Mannheim, Germany) was added to the wells according to the manufacturer's protocol. After one hour of incubation with the dye, the absorbance at 495 nm was measured and the signal was compared with the control (100% viability=cells without test substance).

Hela = assay: Cytotoxicity (XTT) on Hela cells; type: cell-based, human; conditions: 72 h
Procedure: as §1

HepG2 = assay: Cytotoxicity (XTT) on HepG2 cells; type: cell-based, human; conditions: 72 h
Procedure: as §1

PREP = target: T1, PREP (Homo sapiens, UniProt P48147); assay: Inhibitory activity against human recombinant PREP (IC50); type: biochemical; conditions: selected substances
T1 construct: purchased R&D Systems 4308-SE-010
T1 sequence (P48147 1-710): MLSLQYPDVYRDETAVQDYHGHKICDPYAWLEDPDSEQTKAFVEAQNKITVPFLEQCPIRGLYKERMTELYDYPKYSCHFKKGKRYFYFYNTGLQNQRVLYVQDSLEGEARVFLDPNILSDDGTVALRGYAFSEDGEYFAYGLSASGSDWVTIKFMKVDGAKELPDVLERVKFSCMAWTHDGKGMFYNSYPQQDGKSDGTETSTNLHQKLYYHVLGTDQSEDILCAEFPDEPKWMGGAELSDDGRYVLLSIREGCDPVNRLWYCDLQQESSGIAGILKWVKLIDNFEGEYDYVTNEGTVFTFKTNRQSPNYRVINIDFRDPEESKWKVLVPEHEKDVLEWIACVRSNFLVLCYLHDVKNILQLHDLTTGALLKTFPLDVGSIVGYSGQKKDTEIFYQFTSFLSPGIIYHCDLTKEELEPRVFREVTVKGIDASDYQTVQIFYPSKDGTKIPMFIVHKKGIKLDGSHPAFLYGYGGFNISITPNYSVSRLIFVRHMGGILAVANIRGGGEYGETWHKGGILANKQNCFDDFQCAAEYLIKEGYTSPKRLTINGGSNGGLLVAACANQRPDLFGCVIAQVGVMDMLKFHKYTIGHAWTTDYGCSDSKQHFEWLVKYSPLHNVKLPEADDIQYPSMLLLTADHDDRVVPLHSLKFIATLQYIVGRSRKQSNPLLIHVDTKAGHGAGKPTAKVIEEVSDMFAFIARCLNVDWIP
Procedure: (§2) Data were analysed by nonlinear regression with GraphPrism (version 8.3.1). The measurement results are given as values of the mean inhibitory concentration IC50 and its linearized form via the negative decimal logarithm of pIC50.

DPPIV = target: T2, DPPIV (Homo sapiens, UniProt P27487); assay: Inhibitory activity against human recombinant DPPIV (IC50); type: biochemical; conditions: selected substances
T2 construct: purchased R&D Systems 9168-SE-010
T2 sequence (P27487 whole entry): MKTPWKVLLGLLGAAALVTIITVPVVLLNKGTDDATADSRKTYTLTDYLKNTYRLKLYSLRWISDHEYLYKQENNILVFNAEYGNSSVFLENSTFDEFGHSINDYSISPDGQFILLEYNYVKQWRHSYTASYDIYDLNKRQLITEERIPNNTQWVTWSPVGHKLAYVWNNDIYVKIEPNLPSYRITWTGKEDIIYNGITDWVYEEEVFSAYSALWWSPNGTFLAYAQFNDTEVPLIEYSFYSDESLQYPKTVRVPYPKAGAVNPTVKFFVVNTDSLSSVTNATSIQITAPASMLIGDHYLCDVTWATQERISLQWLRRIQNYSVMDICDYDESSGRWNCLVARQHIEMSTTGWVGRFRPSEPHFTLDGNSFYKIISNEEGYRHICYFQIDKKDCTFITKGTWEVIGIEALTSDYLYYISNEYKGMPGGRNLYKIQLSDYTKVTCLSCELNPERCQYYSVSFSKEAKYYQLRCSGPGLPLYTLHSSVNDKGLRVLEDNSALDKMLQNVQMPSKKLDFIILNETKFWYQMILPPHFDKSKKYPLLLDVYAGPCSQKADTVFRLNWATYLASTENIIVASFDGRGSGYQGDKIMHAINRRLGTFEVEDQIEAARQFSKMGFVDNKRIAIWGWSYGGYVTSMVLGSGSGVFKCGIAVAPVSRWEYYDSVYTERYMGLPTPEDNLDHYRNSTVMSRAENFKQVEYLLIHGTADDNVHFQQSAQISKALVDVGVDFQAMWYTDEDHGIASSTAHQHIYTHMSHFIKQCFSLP
Procedure: as §2

CCRF-CEM = assay: Cytotoxicity (XTT) on CCRF-CEM cells; type: cell-based, human; conditions: 72 h
Procedure: as §1

[1] = Stability in murine microsomes; type: in vitro ADME; conditions: for Stability in murine microsomes: murine microsomes 0.5 mg/ml, 5 μmol·l^−1 test substance, NADPH
Procedure: The incubation of 37.5 μl of the mixture was terminated by the addition of 150 μl of acetonitrile containing caffeine as an internal standard, cooled to 0° C. The mixture was vortexed (5 min) and centrifuged (20500 g; 10 min). The supernatant was transferred to a vial, and 1 μl of the mixture was used for LC-MS analysis. […] Results are presented as the percentage of test substance versus control (aliquot taken at time 0).

[2] = Stability in human plasma; type: in vitro ADME; conditions: 37° C.; for Stability in human plasma: up to 120 minutes
Procedure: (§3) An aliquot of plasma was extracted with 120 μl of methanol containing caffeine as an internal standard. The solution was vortexed (5 min) and centrifuged (20500 g; 10 min), the supernatant was transferred to a vial, and 1 μl of the mixture was used for LC-MS analysis. […] Results are presented as the percentage of test substance versus control (aliquot taken at time 0).

[3] = Stability in murine plasma; type: in vitro ADME; conditions: 37° C.; for Stability in murine plasma: up to 120 minutes
Procedure: as §3

[4] = tested on: four human tumour cell lines; assay: Cytotoxicity on four human tumour cell lines (summary statement); type: cell-based; conditions: two concentrations differing by 1 order of magnitude
Procedure: as §1

Row | SMILES | pIC50 (PREP) | pIC50 (DPPIV) | Stability in murine microsomes [1] | Stability in human plasma [2] | Stability in murine plasma [3] | substance degraded within 20 minutes ([1]; murine microsomes, 20 minutes) [%] | substance degraded within 20 minutes [3] [%] | substance degraded within 120 minutes ([2]; 120 minutes) [%] | Cell viability HL60 10 μM (HL-60) [% vs. control] | Cell viability HL60 100 μM (HL-60) [% vs. control] | Cell viability HeLa S3 10 μM (Hela) [% vs. control] | Cell viability HeLa S3 100 μM (Hela) [% vs. control] | Cell viability HepG2 10 μM (HepG2) [% vs. control] | Cell viability HepG2 100 μM (HepG2) [% vs. control] | Cell viability CEM 10 μM (CCRF-CEM) [% vs. control] | Cell viability CEM 100 μM (CCRF-CEM) [% vs. control] | Cytotoxicity [4]
1 | CC(C)(C)OC(=O)CNC(=O)C(=O)[C@@H]1CCCN1C(=O)CNC(=O)c1ccnc2ccccc12 [Compound 3l, tert-Butyl (S)-(2-oxo-2-(1-((quinoline-4-carbonyl)glycyl)pyrrolidin-2-yl)acetyl)glycinate] | 9.22 | < 5.40 |  |  |  |  |  |  | 104 | 111 | 95 | 100 | 97 | 109 | 104 | 121 | 
2 | CCCCCNC(=O)C(=O)[C@@H]1CCCN1C(=O)CNC(=O)c1ccnc2ccccc12 [Compound 3j, (S)—N-(2-Oxo-2-(2-(2-oxo-2-(pentylamino)acetyl)pyrrolidin-1-yl)ethyl)quinoline-4-carboxamide] | 9.40 | < 5.40 |  |  |  |  |  |  | 109 | 123 | 93 | 109 | 76 | 124 | 94 | 119 | 
3 | COc1ccc(CCNC(=O)C(=O)[C@@H]2CCCN2C(=O)CNC(=O)c2ccnc3ccccc23)cc1OC [Compound 3e, (S)—N-(2-(2-(2-((3,4-Dimethoxyphenethyl)amino)-2-oxoacetyl)pyrrolidin-1-yl)-2-oxoethyl)quinoline-4-carboxamide] | 9.30 | < 5.40 | partially stable | stable | stable |  |  |  | 101 | 106 | 104 | 86 | 92 | 90 | 108 | 85 | 
4 | COc1ccc(CNC(=O)C(=O)[C@@H]2CCCN2C(=O)CNC(=O)c2ccnc3ccccc23)cc1OC [Compound 3b, (S)—N-(2-(2-(2-((3,4-Dimethoxybenzyl)amino)-2-oxoacetyl)pyrrolidin-1-yl)-2-oxoethyl)quinoline-4-carboxamide] | 9.40 | < 5.40 | stable; also recorded: high stability | stable; also recorded: excellent stability | stable; also recorded: high stability |  |  |  | 88 | 100 | 106 | 78 | 97 | 92 | 106 | 88 | low cytotoxicity
5 | O=C(NCc1ccccc1)C(=O)[C@@H]1CCCN1C(=O)CNC(=O)c1ccnc2ccccc12 [Compound 3a, (S)—N-(2-(2-(2-(Benzylamino)-2-oxoacetyl)pyrrolidin-1-yl)-2-oxoethyl)quinoline-4-carboxamide] |  |  | stable | stable | stable |  |  |  | 94 | 106 | 119 | 96 | 103 | 107 | 105 | 94 | 

Further lines, with some results ahead:

Row | pIC50 (PREP) | pIC50 (DPPIV) | Stability in murine microsomes [1] | Stability in human plasma [2] | Stability in murine plasma [3] | substance degraded within 20 minutes ([1]; murine microsomes, 20 minutes) [%] | substance degraded within 20 minutes [3] [%] | substance degraded within 120 minutes ([2]; 120 minutes) [%] | SMILES | Cell viability HL60 10 μM (HL-60) [% vs. control] | Cell viability HL60 100 μM (HL-60) [% vs. control] | Cell viability HeLa S3 10 μM (Hela) [% vs. control] | Cell viability HeLa S3 100 μM (Hela) [% vs. control] | Cell viability HepG2 10 μM (HepG2) [% vs. control] | Cell viability HepG2 100 μM (HepG2) [% vs. control] | Cell viability CEM 10 μM (CCRF-CEM) [% vs. control] | Cell viability CEM 100 μM (CCRF-CEM) [% vs. control] | Cytotoxicity [4]
6 |  |  | unstable | stable | degrade immediately | 100 | 100 |  | COC(=O)[C@H](CCC(=O)OCc1ccccc1)NC(=O)CNC(=O)C(=O)[C@@H]1CCCN1C(=O)CNC(=O)c1ccnc2ccccc12 [Compound 5h, 5-Benzyl 1-methyl (2-oxo-2-((S)-1-((quinoline-4-carbonyl)glycyl)pyrrolidin-2-yl)acetyl)glycyl-L-glutamate] | 109 | 106 | 116 | 93 | 112 | 105 | 114 | 103 | 
7 | 9.52 |  | partially stable | stable | degrade immediately |  | 100 | 25 | COC(=O)[C@H](Cc1ccccc1)NC(=O)CNC(=O)C(=O)[C@@H]1CCCN1C(=O)CNC(=O)c1ccnc2ccccc12 [Compound 5f, Methyl (2-oxo-2-((S)-1-((quinoline-4-carbonyl)glycyl)pyrrolidin-2-yl)acetyl)glycyl-L-phenylalaninate] | 114 | 98 | 96 | 100 | 78 | 121 | 98 | 72 | 
8 | 9.59 |  |  |  |  |  |  |  | COC(=O)[C@H](CCCCNC(=O)OCc1ccccc1)NC(=O)CNC(=O)C(=O)[C@@H]1CCCN1C(=O)CNC(=O)c1ccnc2ccccc12 [Compound 5i] | 104 | 101 | 94 | 98 | 89 | 101 | 107 | 107 | 
